How the values were obtained:
HCT-116 cells = assay: Wound healing assay (cell migration); assay type: cell-based, human; conditions: up to 72 hrs
Description: (§1) Wound healing assay is one of the earliest developed methods to study directional cell migration in vitro, by mimicking cell migration during wound healing in vivo. The basic steps involve creating a “wound” in a cell monolayer, capturing the images at the beginning and at regular intervals during cell migration to close the wound, and comparing the images to quantify the migration rate of the cells.
Briefly, the assay was carried out using IBIDI culture-inserts and 24-well plates (IBIDI GmbH, Martinsried, Germany). The culture-inserts were respectively placed into each well. Aliquots of […] containing 3×10^4 cells (PC-9, MDA-MB-231 or CL1-5 cells) were added into the two reservoirs of the same insert and incubated for 8 hrs, then the inserts were gently removed from each wells, then culture medium (500 μL, 10% FBS) containing GMAS (25 or 50 μM) or solvent vehicle (i.e., the control) was added to each well. The cells in the culture wells were photographed respectively at 0, 12, 24, 48 and 72 hrs using an inverted microscope. Finally, the migration area or the “wound” area was quantified by Metamorph software (Molecular Devices).
The effect of GMAS on the migration capability of colon cancer cells was assessed using the wound healing assay as described in the section of “Materials and Methods”. Results are illustrated in FIG. 3.

[1] = system: gefitinib-resistant human non-small cell lung cancer cell line PC-9 (PC9-IR); assay: Cell activity analysis (acid phosphatase, ACP)
Description: (§9) Each cell lines were cultured and maintained in Dulbecco's modified Eagle media (DMEM) supplemented with 1% fetal bovine serum (FBS), 100 IU/ml penicillin, 100 ng/ml streptomycin, 2 mM glutamine, non-essential amino acids and sodium pyruvate in 5% CO2 at 37° C. Cells were grown and maintained in Petri dishes (each was 10 cm in diameter) until reached 80% confluence, then were subject to cell passages. […] Collected the suspended cells, added 2 mL fresh culture media to neutralize any remaining activity of trypsin. Adjusted the cell density by adding appropriate amounts of culture medium to the cell suspension, which was then used to seed the culture plates. The plates were then returned to the incubator and cultured in accordance with the steps described above.
(§10) In operation, cultured cells in each well were washed with PBS (200 μl), then a reacting solution (100 μl) (10 mM p-NPP, 0.1 M sodium acetate, 0.1% Triton X-100, pH 5.5) was added and allowed to react with the cells for 30-40 min at 37° C. The reaction was subsequently stopped with a basic solution (10 μl, 0.1N NaOH). […]

PC-9 cells = assay: Wound healing assay (cell migration); assay type: cell-based, human; conditions: 5 μM GMAS; lung cancer cells (PC-9, FIG. 4)
Description: as §1
Briefly, the assay was carried out using IBIDI culture-inserts and 24-well plates (IBIDI GmbH, Martinsried, Germany). The culture-inserts were respectively placed into each well. Aliquots of […] containing 3×10^4 cells (PC-9, MDA-MB-231 or CL1-5 cells) were added into the two reservoirs of the same insert and incubated for 8 hrs, then the inserts were gently removed from each wells, then culture medium (500 μL, […]) or solvent vehicle (i.e., the control) was added to each well. The cells in the culture wells were photographed respectively at 0, 12, 24, 48 and 72 hrs using an inverted microscope. Finally, the migration area or the “wound” area was quantified by Metamorph software (Molecular Devices).

[2] = system: human non-small cell lung cancer cell line PC-9; assay: Cell activity analysis (acid phosphatase, ACP); conditions: PC-9, 72 h, read-out: IC50 (50% cell activity inhibited)
Description: as §9, §10

[3] = system: human breast carcinoma cell line MDA-MB-231; assay: Cell activity analysis (acid phosphatase, ACP); assay type: cell-based; conditions: Breast Cancer MDA-MB-231, treated at least 48 hrs, read-out: IC50 (50% cell activity inhibited)
Description: (§2) Cell lines used in the present disclosure include human lung adenocarcinoma cell line A549, human hepatocarcinoma cell line Huh7, human colon carcinoma cell line HCT116, human non-small cell lung cancer cell line PC-9, gefitinib-resistant human non-small cell lung cancer cell line PC-9 (PC9-IR), and human breast carcinoma cell line MDA-MB-231.
(§3) Each cell lines were cultured and maintained in Dulbecco's modified Eagle media (DMEM) supplemented with 1% fetal bovine serum (FBS), 100 IU/ml penicillin, 100 ng/ml streptomycin, 2 mM glutamine, non-essential amino acids and sodium pyruvate in 5% CO2 at 37° C. Cells were grown and maintained in Petri dishes (each was 10 cm in diameter) until reached 80% confluence, then were subject to cell passages. Briefly, cells were first washed with phosphate buffer solution (PBS, 3 ml) once, then treated with 0.05% Trypsin/0.025% EDTA solution (1 mL) for 5 min so that the attached cells become suspended. Collected the suspended cells, added 2 mL fresh culture media to neutralize any remaining activity of trypsin. Adjusted the cell density by adding appropriate amounts of culture medium to the cell suspension, which was then used to seed the culture plates. The plates were then returned to the incubator and cultured in accordance with the steps described above.
(§4) Cells were seeded in 96-well plates with a density of 3,000 cells/well and cultured in accordance with the procedures described above.
(§5) Acid Phosphatase analysis
(§6) Cell activity may be derived from the acid phosphatase (ACP) activity of a cell.
(§7) In operation, cultured cells in each well were washed with PBS (200 μl), then a reacting solution (100 μl) (10 mM p-NPP, 0.1 M sodium acetate, 0.1% Triton X-100, pH 5.5) was added and allowed to react with the cells for 30-40 min at 37° C. The reaction was subsequently stopped with a basic solution (10 μl, 0.1N NaOH). Adsorption at the wavelength of 405 nm was then measured, and the concentration that inhibited 50% cell activity (IC50) was derived from the absorbance measurement.
(§8) The effects of GMAS on various cancer cell lines, including colon cancer, hepatoma, breast cancer, and lung cancer, were respectively assessed by cell activity analysis using ACP activity as an indicator. Results are depicted in FIG. 1.

[4] = system: human hepatocarcinoma cell line Huh7; assay: Cell activity analysis (acid phosphatase, ACP); assay type: cell-based; conditions: Hepatoma Huh-7, treated at least 48 hrs, read-out: IC50 (50% cell activity inhibited)
Description: as §2, §3, §4, §5, §6, §7, §8

[5] = system: human colon carcinoma cell line HCT116; assay: Cell activity analysis (acid phosphatase, ACP); assay type: cell-based; conditions: Colon Cancer HCT-116, treated at least 48 hrs, read-out: IC50 (50% cell activity inhibited)
Description: as §2, §3, §4, §5, §6, §7, §8

[6] = system: human lung adenocarcinoma cell line A549; assay: Cell activity analysis (acid phosphatase, ACP); assay type: cell-based; conditions: Lung Cancer A549, treated at least 48 hrs, read-out: IC50 (50% cell activity inhibited)
Description: as §2, §3, §4, §5, §6, §7, §8

For `CC(=O)O[C@H]1CC[C@]2(C)C3=CC[C@]4(C)[C@@H]([C@H](C)CC/C=C(\C)C(=O)O)C[C@H](OC(C)=O)[C@@]4(C)C3=CC[C@H]2C1(C)C` [GMAS, ganodermic acid S], the “wound closing phenomenon (migration of colon cancer cells)” value (HCT-116 cells; 25 μM GMAS) was “slightly inhibited”, the “wound closing phenomenon (migration of colon cancer cells)” value (HCT-116 cells; 50 μM GMAS) was “significantly suppressed” and the IC50 ([1]; Homo sapiens, 72 h, read-out: IC50 (50% cell activity inhibited)) was 62.8 µM. For the same molecule, the “Resistant Ratio (PC9-IR/PC9)” value ([1]; IC50 of PC9-IR divided by IC50 of PC-9) was 1.1, the “reduction of the migrated area as compared with control” value (PC-9 cells) was 50% and the IC50 [2] was 56.1 µM. The IC50 [3] was 20.4 µM, the IC50 [4] was 19.1 µM and the IC50 [5] was 8 µM. The IC50 [6] was 7.9 µM.
